Where two headings read alike, the source gives them in different places.
Tests used:
[1] = system: GCPA108 T3.IV patient-derived AGCT cell line; assay: Cell viability drug screen (Cell Titer Glo 2.0, 72 h), mono- and combination therapy, GCPA108T3.IV; settings: GCPA108T3IV
Experimental: (§1) Cell lines were seeded at a density of 500 cells/well in 40 uL in 384-well plates (Corning, NY, USA) with the Multidrop™ cell dispenser (Thermo Fischer Scientific, Waltham, MA, USA) and sealed with Breathe-Easy® membrane (Sigma-Aldrich, St. Louis, MO, USA) to prevent evaporation. The SVOG-3e line was seeded at 1000 cells/well due to contact-dependent growth requirements. For each cell line, three biological repeats and two technical repeats each were performed in order to ensure the validity of the drug screens. […] Subsequently, 11 drugs and 12 drug combinations were dispensed and all wells (excluding blanks and non-DMSO control wells) were normalized to 1% DMSO using the HP Tecan D300e Digital Dispenser (Hewlett-Packard, Palo Alto, CA, USA). All drugs were applied in linear concentration ranges (Table 2), including 16 data points to enable combination drug testing at constant ratios (Table 3). Next, the plates were covered with the Breathe-Easy membrane and incubated. After 72 h, the Multidrop dispensed 15 uL per well of Cell Titer Glo 2.0 (Thermo Fischer Scientific, Waltham, MA, USA) and plates were incubated in the dark for 10 min. After incubation, luminescence excitation was assessed in the Spectramax reader (Molecular Devices, San Jose, CA, USA) (top read, luminescence excitation at 500 nm) and raw data were processed in Microsoft Excel to subtract background luminescence. The Z-factor, a mathematical method used to quantify the quality of a drug screen based on the calculation of the separation band between the values of the positive and negative controls, was utilized to assess the quality of drug screens [54]. Screens with a Z-factor value of >0.5 were used for further analysis.
(§2) Overall cell survival (in %) was plotted against the drug concentration range of each drug (in log10[μM]) using GraphPad Prism 8.3.1. Values that exceeded 100% survival (within +20% biological deviation) were normalized to 100% survival. Similarly, values below 0% cell survival (within −20% biological deviation) were normalized to 0% survival. Values exceeding this deviation were excluded. Dose–response curves were obtained using the model “log(inhibitor) vs. variable slope (normalized response)” to fit the dose–response curves and R^2 values were used to indicate how well the model fit the data (Supplementary Materials Figures S4 and S5). […] The maximum plasma concentration (Cmax) and the plasma concentration at steady state (Css) were used as toxicity thresholds. The Cmax was utilized for drugs in which short, high-dosage time courses are required, while the Css was used for maintenance therapy regimes such as anti-hormonal treatment. […] The IC50 values were calculated based on the Chou–Talalay method using Compusyn software [55]. For anti-hormonal treatment, mostly provided as maintenance therapy, we used IC10 values in addition to the IC50.
(§3) In addition to the 11 monotherapies, 12 drug combinations were tested (Table 3) simultaneously with the individual drug treatments in the same 384-well plate. […] Synergy was evaluated using the mass action law, a systematic analysis assessing dose–response dynamics in a cost-effective manner [56, 57]. The combination index (CI) was used to indicate antagonistic (CI > 1) additive (CI = 1) and synergistic (CI < 1) effects [55].

[2] = system: GCPA096 T1.I patient-derived AGCT cell line; assay: Cell viability drug screen (Cell Titer Glo 2.0, 72 h), mono- and combination therapy, GCPA096T1.I; settings: GCPA096T1I
Experimental: (§4) Cell lines were seeded at a density of 500 cells/well in 40 uL in 384-well plates (Corning, NY, USA) with the Multidrop™ cell dispenser (Thermo Fischer Scientific, Waltham, MA, USA) and sealed with Breathe-Easy® membrane (Sigma-Aldrich, St. Louis, MO, USA) to prevent evaporation. […] For each cell line, three biological repeats and two technical repeats each were performed in order to ensure the validity of the drug screens. […] Subsequently, 11 drugs and 12 drug combinations were dispensed and all wells (excluding blanks and non-DMSO control wells) were normalized to 1% DMSO using the HP Tecan D300e Digital Dispenser (Hewlett-Packard, Palo Alto, CA, USA). […] Next, the plates were covered with the Breathe-Easy membrane and incubated. After 72 h, the Multidrop dispensed 15 uL per well of Cell Titer Glo 2.0 (Thermo Fischer Scientific, Waltham, MA, USA) and plates were incubated in the dark for 10 min. After incubation, luminescence excitation was assessed in the Spectramax reader (Molecular Devices, San Jose, CA, USA) (top read, luminescence excitation at 500 nm) and raw data were processed in Microsoft Excel to subtract background luminescence. The Z-factor, a mathematical method used to quantify the quality of a drug screen based on the calculation of the separation band between the values of the positive and negative controls, was utilized to assess the quality of drug screens [54]. Screens with a Z-factor value of >0.5 were used for further analysis.
(§5) Overall cell survival (in %) was plotted against the drug concentration range of each drug (in log10[μM]) using GraphPad Prism 8.3.1. Values that exceeded 100% survival (within +20% biological deviation) were normalized to 100% survival. Similarly, values below 0% cell survival (within −20% biological deviation) were normalized to 0% survival. Values exceeding this deviation were excluded. Dose–response curves were obtained using the model “log(inhibitor) vs. variable slope (normalized response)” to fit the dose–response curves and R^2 values were used to indicate how well the model fit the data (Supplementary Materials Figures S4 and S5). […] The IC50 values were calculated based on the Chou–Talalay method using Compusyn software [55]. For anti-hormonal treatment, mostly provided as maintenance therapy, we used IC10 values in addition to the IC50.
as §3

[3] = system: GCPA096 T1.II patient-derived AGCT cell line; assay: Cell viability drug screen (Cell Titer Glo 2.0, 72 h), mono- and combination therapy, GCPA096T1.II; settings: GCPA096T1II
[4] = system: GCPA028 T1.II patient-derived AGCT cell line; assay: Cell viability drug screen (Cell Titer Glo 2.0, 72 h), mono- and combination therapy, GCPA028
Experimental: (§6) Cell lines were seeded at a density of 500 cells/well in 40 uL in 384-well plates (Corning, NY, USA) with the Multidrop™ cell dispenser (Thermo Fischer Scientific, Waltham, MA, USA) and sealed with Breathe-Easy® membrane (Sigma-Aldrich, St. Louis, MO, USA) to prevent evaporation. The SVOG-3e line was seeded at 1000 cells/well due to contact-dependent growth requirements. For each cell line, three biological repeats and two technical repeats each were performed in order to ensure the validity of the drug screens. […] Subsequently, 11 drugs and 12 drug combinations were dispensed and all wells (excluding blanks and non-DMSO control wells) were normalized to 1% DMSO using the HP Tecan D300e Digital Dispenser (Hewlett-Packard, Palo Alto, CA, USA). All drugs were applied in linear concentration ranges (Table 2), including 16 data points to enable combination drug testing at constant ratios (Table 3). Next, the plates were covered with the Breathe-Easy membrane and incubated. After 72 h, the Multidrop dispensed 15 uL per well of Cell Titer Glo 2.0 (Thermo Fischer Scientific, Waltham, MA, USA) and plates were incubated in the dark for 10 min. After incubation, luminescence excitation was assessed in the Spectramax reader (Molecular Devices, San Jose, CA, USA) (top read, luminescence excitation at 500 nm) and raw data were processed in Microsoft Excel to subtract background luminescence. […] Screens with a Z-factor value of >0.5 were used for further analysis.
as §2, §3

[5] = cited from earlier work
[6] = system: GCPA007 T2.IV patient-derived AGCT cell line; assay: Cell viability drug screen (Cell Titer Glo 2.0, 72 h), mono- and combination therapy, GCPA007T2.IV; settings: GCPA007T2IV
Experimental: as §4, §5, §3

AGCT cell lines = assay: Cell viability drug screen (72 h), summary over AGCT cell lines (12 patient-derived, with or without KGN); assay type: cell-based, human; settings: median over AGCT cell lines; read-out: median IC50 in monotherapy
Experimental: as §1, §2, §3

[7] = system: GCPA096 T1.XVI patient-derived AGCT cell line; assay: Cell viability drug screen (Cell Titer Glo 2.0, 72 h), mono- and combination therapy, GCPA096T1.XVI; settings: GCPA096T1XVI
[8] = system: GCPA007 T2.I patient-derived AGCT cell line; assay: Cell viability drug screen (Cell Titer Glo 2.0, 72 h), mono- and combination therapy, GCPA007T2.I; settings: GCPA007T2I
Experimental: as §6, §2, §3

[9] = system: KGN cells (AGCT cell line); assay: Cell viability drug screen (Cell Titer Glo 2.0, 72 h), mono- and combination therapy, KGN
Experimental: KGN was cultured in conditions identical to AGCT-patient-derived cell lines.
as §6, §5

[10] = system: GCPA096 T1.XV patient-derived AGCT cell line; assay: Cell viability drug screen (Cell Titer Glo 2.0, 72 h), mono- and combination therapy, GCPA096T1.XV; settings: GCPA096T1XV
Experimental: as §1, §2, §3

[11] = system: GCPA113 T1.I patient-derived AGCT cell line; assay: Cell viability drug screen (Cell Titer Glo 2.0, 72 h), mono- and combination therapy, GCPA113T1.I; settings: GCPA113T1I
[12] = system: GCPA113 T1.III patient-derived AGCT cell line; assay: Cell viability drug screen (Cell Titer Glo 2.0, 72 h), mono- and combination therapy, GCPA113T1.III; settings: GCPA113T1III
Experimental: as §4, §5, §3

[13] = system: GCPA113 T1.II patient-derived AGCT cell line; assay: Cell viability drug screen (Cell Titer Glo 2.0, 72 h), mono- and combination therapy, GCPA113T1.II; settings: GCPA113T1II
Experimental: as §4, §5, §3

[14] = system: GCPA096 T1.V patient-derived AGCT cell line; assay: Cell viability drug screen (Cell Titer Glo 2.0, 72 h), mono- and combination therapy, GCPA096T1.V; settings: GCPA096T1V
[15] = in combination Carbo+Pacli+6thio2dG
[16] = in combination Carbo+Pacli+Alpelisib
[17] = read-out: IC50 in monotherapy, monotherapy
[18] = drug within Carbo+Pacli+6thio2dG
[19] = drug within Carbo+Pacli+Alpelisib
[20] = read-out: IC50 in monotherapy, single drug, 72 h, unit not given (compared with Cmax/Css in uM)

N.N.O=C([O-])C1(C(=O)[O-])CCC1.[Pt+2] [Carboplatin]
DRI (Fa=0,5) ([1]; in Carbo+Pacli): 1
DRI (Fa=0,5) ([1]; in Carbo+Pacli+6thio2dG): 0.7515
DRI (Fa=0,5) ([1]; in Carbo+Pacli+Alpelisib): 9.921
DRI (Fa=0,5) ([2]; in combination Carbo+Pacli): 1.8
DRI (Fa=0,5) [2, 15]: 2.92
DRI (Fa=0,5) [2, 16]: 7.45
IC50 [2, 17]: 257 µM
DRI (Fa=0,5) ([3]; drug within Carbo+Pacli): 1.11
DRI (Fa=0,5) [3, 18]: 2.3
DRI (Fa=0,5) [3, 19]: 5.75
IC50 [3, 20]: 168 µM
DRI (Fa=0,5) ([4]; GCPA028, in combination Carbo+Pacli): 0.51
DRI (Fa=0,5) ([4]; GCPA028, in combination Carbo+Pacli+6thio2dG): 0.29
DRI (Fa=0,5) ([4]; GCPA028, in combination Carbo+Pacli+Alpelisib): 41.26
IC50 ([4]; read-out: IC50 in monotherapy, GCPA028, monotherapy): > 500 µM
Cmax/Css plasma (Log 10) ([5]; human maximum or steady state plasma concentration, log10 of the uM value): 2.13 Log 10
Cmax/Css plasma (Log 10) ([5]; human plasma Cmax/Css, log10 of uM value, from phase I/II clinical trials): 2.13 Log 10
Cmax/Css plasma (Log 10) ([5]; human plasma maximum/steady state concentration, ref phase I/II clinical trials): 2.13 Log 10
Cmax/Css plasma (Log 10) ([5]; human plasma, maximum or steady state concentration, log10 of uM value): 2.13
Cmax/Css plasma (Log 10) ([5]; human plasma, log10 of uM, phase I/II trials): 2.13
Cmax ([5]; read-out: Cmax (maximum drug concentration achieved in plasma), human plasma, phase I/II studies): 135 µM
Cmax ([5]; read-out: Cmax/Css plasma, human maximum or steady state plasma concentration): 135 µM
Cmax ([5]; read-out: Cmax/Css plasma, human plasma Cmax/Css, from phase I/II clinical trials): 135 µM
Cmax ([5]; read-out: Cmax/Css plasma, human plasma maximum/steady state concentration, ref phase I/II clinical trials): 135 µM
Cmax ([5]; read-out: Cmax/Css plasma, human plasma, maximum or steady state concentration): 135 µM
Cmax ([5]; read-out: Cmax/Css plasma, human plasma, phase I/II trials): 135 µM
DRI (Fa=0,5) ([6]; in combination Carbo+Pacli): 2.73
DRI (Fa=0,5) [6, 15]: 1.36
DRI (Fa=0,5) [6, 16]: 37.92
IC50 [6, 17]: > 500 µM
IC50 (AGCT cell lines): 343 µM
DRI (Fa=0,5) ([7]; in Carbo+Pacli): 0.64
DRI (Fa=0,5) ([7]; in Carbo+Pacli+6thio2dG): 0.59
DRI (Fa=0,5) ([7]; in Carbo+Pacli+Alpelisib): 2.39
IC50 [7, 17]: 144 µM
DRI (Fa=0,5) ([8]; in Carbo+Pacli (10:1)): 4.425
DRI (Fa=0,5) ([8]; in Carbo+Pacli+6thio2dG (10:1:1)): 2.54
DRI (Fa=0,5) ([8]; in Carbo+Pacli+Alpelisib (10:1:2)): 230.67
IC50 ([8]; read-out: IC50 in monotherapy, cell viability 72 h after drug application): > 500 µM
DRI (Fa=0,5) ([9]; drug within Carbo+Pacli): 5.1507
DRI (Fa=0,5) [9, 18]: 2.192
DRI (Fa=0,5) [9, 19]: 26.6538
IC50 [9, 17]: 297 µM
DRI (Fa=0,5) ([10]; drug within Carbo+Pacli): 0.85
DRI (Fa=0,5) [10, 18]: 2.35
DRI (Fa=0,5) [10, 19]: 7.71
IC50 [10, 20]: 265 µM
DRI (Fa=0,5) ([11]; in Carbo+Pacli): 1.12
DRI (Fa=0,5) ([11]; in Carbo+Pacli+6thio2dG): 2.55
DRI (Fa=0,5) ([11]; in Carbo+Pacli+Alpelisib): 32.56
IC50 [11, 17]: > 500 µM
DRI (Fa=0,5) ([12]; drug within Carbo+Pacli): 1.76
DRI (Fa=0,5) [12, 18]: 1.97
DRI (Fa=0,5) [12, 19]: 35.75
IC50 [12, 17]: 358 µM
DRI (Fa=0,5) ([13]; drug within Carbo+Pacli): 1.06
DRI (Fa=0,5) [13, 18]: 1.33
DRI (Fa=0,5) [13, 19]: 4.67
IC50 [13, 17]: 276 µM
DRI (Fa=0,5) ([14]; drug within Carbo+Pacli): 1.19
DRI (Fa=0,5) [14, 18]: 4.7
DRI (Fa=0,5) [14, 19]: 17.09
IC50 [14, 20]: > 500 µM

— publication PMC7864192 (Cancers, 2021)
